Assay results taken from patent publication US11679107B2 (Eisai R&D Management Co., Ltd., priority 2018, dated 2023).
Where two headings read alike, the source gives them in different places.

What was measured:
SF3b complexes = molecular target: T1, SF3b complexes (Homo sapiens, UniProt O75533+Q7RTV0); assay: Scintillation proximity assay (SPA) with [3H]-labelled pladienolide probe; assay type: binding; settings: SF3B1 (WT); geometric mean; read-out: SPA-ATS GMean IC50 (nM) SF3B1 (WT)
T1 construct: endogenous in cells; host or cells: Nuclear extracts; A HeLa S3 extract preparation is described for the in vitro splicing assay
Summary of the method: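 SF3b complexes captured from nuclear extracts on anti-SF3B1 antibody SPA beads; test compounds pre-incubated 30 min before 2.5 nM [3H]-pladienolide probe added, then 30 min incubation. Bound probe read by scintillation; values from non-linear regression of concentration–response curves.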

[1] = tested on: Ad2 variant pre-mRNAs spliced in HeLa S3 nuclear extracts; assay: In vitro splicing assay (IVS), RT-qPCR of spliced product; assay type: biochemical; settings: for IC50: geometric mean; for Ratio Ad2.1/2.2: ratio of IVS IC50 Ad2.1 to Ad2.2
Summary of the method: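 Read-out is one-step TaqMan RT-qPCR of spliced Ad2 mRNA with Ftz as reference, normalized to DMSO and fit by non-linear regression. Reactions held HeLa S3 nuclear extract, 2 ng Ad2-derived pre-mRNA and test compound, with 15 min preincubation. Splicing was started with ATP-containing activation buffer and run 90 min at 30 °C.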

[2] = tested on: NCI-H1568 cells (high MCL1); assay: Cell proliferation and viability, CellTiter-Glo, 72 hours; assay type: cell-based; settings: for GI50: geometric mean
Summary of the method: (§1)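 ATP luminescence (CellTiter-Glo) was measured 72 h after treatment with compound at 10 μM–100 pM (11 points, half-log) in 0.1% DMSO. The Panc line was grown in RPMI-1640 plus insulin and 15% FBS, the other in 10% FBS. Data were normalised to time zero and vehicle controls, where −100% is cidal and 0% static.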

[3] = tested on: Panc 05.04 cells (SF3b K700E mutant); assay: as above; assay type: cell-based; settings: for GI50: geometric mean
Summary of the method: as §1

[4] = Ad2.1 pre-mRNA substrate, read-out: qPCR-IVS-ATS GMean IC50 (nM) Ad2.1
[5] = Ad2.2 pre-mRNA substrate, read-out: qPCR-IVS-ATS GMean IC50 (nM) Ad2.2
[6] = NCI-H1568, read-out: CTGlo-ATS GMean GI50 (nM) 72 h NCIH1568.1, NCIH1568.1 cells, 72 h
[7] = NCIH1568.1 cells, 72 h, −100% cidal, 0% static, 100% maximal growth
[8] = PANC0504.1 cells, 72 h, −100% cidal, 0% static, 100% maximal growth
[9] = Panc 05.04, read-out: CTGlo-ATS GMean GI50 (nM) 72 h PANC0504.1, PANC0504.1 cells, 72 h
[10] = NCI-H1568, 72 h, read-out: CTGlo-ATS GMean GI50 (nM) 72 h NCIH1568.1, NCIH1568.1 cells, 72 h
[11] = Panc 05.04, 72 h, read-out: CTGlo-ATS GMean GI50 (nM) 72 h PANC0504.1, PANC0504.1 cells, 72 h
[12] = 72 h, NCIH1568.1, -100% = cidal, 0% = static, 100% = uninhibited growth
[13] = 72 h, PANC0504.1, -100% = cidal, 0% = static, 100% = uninhibited growth
[14] = NCI-H1568, read-out: CTGlo-ATS GMean GI50 (nM) 72 h NCIH1568.1, 72 h, NCIH1568.1
[15] = Panc 05.04, read-out: CTGlo-ATS GMean GI50 (nM) 72 h PANC0504.1, 72 h, PANC0504.1

Row | SMILES | IC50 (SF3b complexes) | IC50 [1, 4] | IC50 [1, 5] | GI50 [2, 6] | CTGlo-ATS Mean MinResponse % 72 h NCIH1568.1 [2, 7] | CTGlo-ATS Mean MinResponse % 72 h PANC0504.1 [3, 8] | GI50 [3, 9] | GI50 [2, 10] | GI50 [3, 11] | Ratio Ad2.1/2.2 [1] | CTGlo-ATS Mean MinResponse % 72 h NCIH1568.1 [2, 12] | GI50 ([2]; NCI-H1568, 72 h, read-out: CTGlo-ATS GMean GI50 (nM) 72 h NCIH1568.1, 72 h, NCIH1568.1) | CTGlo-ATS Mean MinResponse % 72 h PANC0504.1 [3, 13] | GI50 ([3]; Panc 05.04, 72 h, read-out: CTGlo-ATS GMean GI50 (nM) 72 h PANC0504.1, 72 h, PANC0504.1) | GI50 [2, 14] | GI50 [3, 15]
1 | C/C(=C\c1cnn(C2CCN(C)CC2)c1)[C@H]1OC(=O)C[C@H](O)CC[C@H](C)[C@@H](OC(=O)N2CCN(C)CC2)/C=C/[C@@H]1C [Compound 106] | 146 nM | 21300 nM | 556 nM | 9020 nM | 49.516% | 25.144% | 1950 nM | – | – | – | – | – | – | – | – | –
2 | C/C(=C\c1ccc2ccnc(O)c2c1)[C@H]1OC(=O)C[C@H](O)CC[C@H](C)[C@@H](OC(=O)N2CCN(C)CC2)/C=C/[C@@H]1C [Compound 127] | 19.1 nM | > 25000 nM | 452 nM | – | −18.734% | 11.995% | – | 835 nM | 1070 nM | – | – | – | – | – | – | –
3 | C/C(=C\c1cccc(S(=O)(=O)C2CC2)c1)[C@H]1OC(=O)C[C@H](O)CC[C@H](C)[C@@H](OC(=O)N2CCN(C)CC2)/C=C/[C@@H]1C [Compound 215, [(2S,3S,4E,6R,7S,10R)-2-[(E)-1-(3-cyclopropylsulfonylphenyl)prop-1-en-2-yl]-10-hydroxy-3,7-dimethyl-12-oxo-1-oxacyclododec-4-en-6-yl] 4-methylpiperazine-1-carboxylate] | 6.83 nM | 20500 nM | 50.7 nM | – | – | – | – | – | – | 403.817 | −42.412% | 25 nM | −81.853% | 20 nM | – | –
4 | C/C(=C\c1cc(F)cc(N2CCN(CCO)CC2)c1)[C@H]1OC(=O)C[C@H](O)CC[C@H](C)[C@@H](OC(=O)N2CCN(C)CC2)/C=C/[C@@H]1C [Compound 12] | 4.88 nM | 14.7 nM | 13.5 nM | 3.64 nM | −92.161% | −73.954% | 7.55 nM | – | – | – | – | – | – | – | – | –
5 | C/C(=C\c1cc(F)cc(N2CCOCC2)c1)[C@H]1OC(=O)C[C@H](O)CC[C@H](C)[C@@H](OC(=O)N2CC[C@@H](F)C2)/C=C/[C@@H]1C [Compound 247, [(2S,3S,4E,6R,7S,10R)-2-[(E)-1-(3-fluoro-5-morpholin-4-ylphenyl)prop-1-en-2-yl]-10-hydroxy-3,7-dimethyl-12-oxo-1-oxacyclododec-4-en-6-yl] (3R)-3-fluoropyrrolidine-1-carboxylate] | 14.4 nM | 50.8 nM | 34.6 nM | – | – | – | – | – | – | 1.467 | −67.545% | – | −77.509% | – | 31.4 nM | 40.5 nM
6 | C/C(=C\c1cc(F)c2cnn(C3CCOCC3)c2c1)[C@H]1OC(=O)C[C@H](O)CC[C@H](C)[C@@H](OC(=O)N2CCN(C)CC2)/C=C/[C@@H]1C [Compound 116] | 4.45 nM | 25 nM | 19.2 nM | 1.55 nM | −90.483% | −76.511% | 2.2 nM | – | – | – | – | – | – | – | – | –
7 | C/C(=C\c1cccc(S(=O)(=O)N2CCCC2C)c1)[C@H]1OC(=O)CC(O)CCC(C)[C@@H](OC(=O)N2CCN(C)CC2)/C=C/[C@@H]1C (stereo in doubt) [Compound 200, [(2S,3S,4E,6R,7R,10S)-10-hydroxy-3,7-dimethyl-2-[(E)-1-[3-[(2S)-2-methylpyrrolidin-1-yl]sulfonylphenyl]prop-1-en-2-yl]-12-oxo-1-oxacyclododec-4-en-6-yl] 4-methylpiperazine-1-carboxylate] | 8.03 nM | 8050 nM | 27 nM | – | – | – | – | – | – | 297.600 | −51.281% | – | −94.085% | – | 24.2 nM | 17.4 nM
8 | C/C(=C\c1cc(F)cc(N2CCN(C(=O)Cn3cccn3)CC2)c1)[C@H]1OC(=O)C[C@H](O)CC[C@H](C)[C@@H](OC(=O)N2CCN(C)CC2)/C=C/[C@@H]1C [Compound 122] | 5.5 nM | 18.8 nM | 14.3 nM | 2 nM | −85.128% | −70.057% | 2.1 nM | – | – | – | – | – | – | – | – | –
9 | C/C(=C\c1cc(F)cc(N2CCOCC2=O)c1)[C@H]1OC(=O)C[C@H](O)CC[C@H](C)[C@@H](OC(=O)N2CCN(C)CC2)/C=C/[C@@H]1C [Compound 56] | 1.94 nM | 16.1 nM | 15.3 nM | 4.42 nM | −67.625% | −90.320% | 1.85 nM | – | – | – | – | – | – | – | – | –
10 | C/C(=C\c1cccc(S(=O)(=O)NC(C)(C)CO)c1)[C@H]1OC(=O)C[C@H](O)CC[C@H](C)[C@@H](OC(=O)N2CCN(C)CC2)/C=C/[C@@H]1C [Compound 201, [(2S,3S,4E,6R,7S,10R)-10-hydroxy-2-[(E)-1-[3-[(1-hydroxy-2-methylpropan-2-yl)sulfamoyl]phenyl]prop-1-en-2-yl]-3,7-dimethyl-12-oxo-1-oxacyclododec-4-en-6-yl] 4-methylpiperazine-1-carboxylate] | 5.64 nM | 620 nM | 17.5 nM | – | – | – | – | – | – | 35.485 | −48.055% | – | −91.697% | – | 27.5 nM | 40.9 nM
11 | C/C(=C\c1cc(F)cc(N2CCOCC2)c1)[C@H]1OC(=O)C[C@H](O)CC[C@H](C)[C@@H](OC(=O)N(C)C2CN3CCC2CC3)/C=C/[C@@H]1C (stereo partly shown) [Compound 98] | 3.45 nM | 159 nM | 35.9 nM | – | −75.954% | −87.759% | – | 11.5 nM | 10.3 nM | – | – | – | – | – | – | –
12 | C/C(=C\c1cccc(S(=O)(=O)N2CCC2)c1)[C@H]1OC(=O)C[C@H](O)CC[C@H](C)[C@@H](OC(=O)N2CCN(C)CC2)/C=C/[C@@H]1C [Compound 198, [(2S,3S,4E,6R,7S,10R)-2-[(E)-1-[3-(azetidin-1-ylsulfonyl)phenyl]prop-1-en-2-yl]-10-hydroxy-3,7-dimethyl-12-oxo-1-oxacyclododec-4-en-6-yl] 4-methylpiperazine-1-carboxylate] | 7.82 nM | 2390 nM | 43.2 nM | – | – | – | – | – | – | 55.224 | −56.095% | – | −96.773% | – | 15.5 nM | 21.7 nM
13 | C/C(=C\c1cc(F)cc(N2CCN(C(=O)CC3CC3)CC2)c1)[C@H]1OC(=O)C[C@H](O)CC[C@H](C)[C@@H](OC(=O)N2CCN(C)CC2)/C=C/[C@@H]1C [Compound 121] | 2.99 nM | 25.5 nM | 22 nM | 2.66 nM | −80.331% | −88.956% | 3.73 nM | – | – | – | – | – | – | – | – | –
14 | C/C(=C\c1cc(Cl)cc(N2CCOCC2)c1)[C@H]1OC(=O)C[C@H](O)CC[C@H](C)[C@@H](OC(=O)N2CCN(C)CC2)/C=C/[C@@H]1C [Compound 20] | 7.76 nM | 61.3 nM | 40.3 nM | 17.6 nM | −68.668% | −78.467% | 14.6 nM | – | – | – | – | – | – | – | – | –
